Test results taken from US10160747B2, “Compounds and methods for kinase modulation, and indications therefor” (Plexxikon Inc., priority 2016, dated 2018).

Legend:
[1] = system: MOLM-14 D835Y (endogenous FLT3 ITD and transfected FLT3 D835Y); assay: MOLM-14 D835Y cell proliferation assay (CellTiter-Glo); type: cell-based; details: Homo sapiens, MOLM-14, 72 h; 3 d growth, GMean
In short: (§1)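 MOLM-14 cells (FLT3 ITD) carrying D835Y or F691L, 1×10^4 cells/well, eight 1:3 dilutions from 1 μM final, 0.2% DMSO, 3 days at 37 °C, 5% CO2. Viability by CellTiter-Glo luminescence (ATP content); IC50 from concentration-response.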

[2] = system: MOLM-14 F691L (endogenous FLT3 ITD and transfected FLT3 F691L); assay: MOLM-14 F691L cell proliferation assay (CellTiter-Glo); type: cell-based; details: Homo sapiens, MOLM-14, 72 h; 3 d growth, GMean
In short: as §1

BA/F3-FLT3-ITD + D835Y = molecular target: T1, BA/F3-FLT3-ITD + D835Y (Homo sapiens, UniProt P36888, D835Y, cells depend on it, form not given); assay: Engineered BA/F3 cell growth assay, FLT3 ITD/D835Y; type: cell-based, murine; details: 3 d growth
T1 sequence (P36888 with tags, fused parts or gaps INS600HVDFREYEYD/D835Y): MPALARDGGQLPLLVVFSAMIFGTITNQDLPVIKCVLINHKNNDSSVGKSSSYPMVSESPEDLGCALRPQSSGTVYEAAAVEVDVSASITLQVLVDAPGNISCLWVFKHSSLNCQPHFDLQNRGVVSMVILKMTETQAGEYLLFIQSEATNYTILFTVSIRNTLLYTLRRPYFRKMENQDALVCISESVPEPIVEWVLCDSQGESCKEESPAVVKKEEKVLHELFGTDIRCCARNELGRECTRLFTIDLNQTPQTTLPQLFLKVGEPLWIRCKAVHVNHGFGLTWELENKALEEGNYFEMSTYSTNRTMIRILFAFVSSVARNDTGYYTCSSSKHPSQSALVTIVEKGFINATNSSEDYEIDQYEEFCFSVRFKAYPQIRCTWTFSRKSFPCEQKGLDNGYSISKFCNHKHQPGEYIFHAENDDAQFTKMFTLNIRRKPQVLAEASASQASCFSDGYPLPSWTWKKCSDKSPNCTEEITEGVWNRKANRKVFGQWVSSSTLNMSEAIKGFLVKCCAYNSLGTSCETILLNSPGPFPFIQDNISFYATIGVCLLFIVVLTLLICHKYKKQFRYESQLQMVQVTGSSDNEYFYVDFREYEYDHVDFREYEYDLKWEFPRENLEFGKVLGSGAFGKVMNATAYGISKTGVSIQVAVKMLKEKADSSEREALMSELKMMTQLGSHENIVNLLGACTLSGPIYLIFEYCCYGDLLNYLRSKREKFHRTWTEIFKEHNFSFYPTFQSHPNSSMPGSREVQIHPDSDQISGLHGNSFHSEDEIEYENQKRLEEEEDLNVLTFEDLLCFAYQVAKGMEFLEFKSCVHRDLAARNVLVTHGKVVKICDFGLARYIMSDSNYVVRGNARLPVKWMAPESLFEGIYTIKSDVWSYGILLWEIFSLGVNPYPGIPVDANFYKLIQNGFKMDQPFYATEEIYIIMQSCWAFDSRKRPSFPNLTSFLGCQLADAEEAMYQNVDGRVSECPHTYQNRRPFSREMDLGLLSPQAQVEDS
In short: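 IC50 derived from CellTiter-Glo ATP luminescence after 3 days at 37 °C, 5% CO2, over eight 1:3 dilutions from 1 μM (0.2% DMSO final). Cells: IL-3-independent murine Ba/F3 expressing full-length FLT3 ITD/D835Y, 1×10^4 per well.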

CSF1R = CSF1R (Homo sapiens, UniProt P07333); assay: CSF1R 100 ATP 8 pt kinase assay (Table 6); type: biochemical
CSF1R, sequence (P07333 20-972, species assumed): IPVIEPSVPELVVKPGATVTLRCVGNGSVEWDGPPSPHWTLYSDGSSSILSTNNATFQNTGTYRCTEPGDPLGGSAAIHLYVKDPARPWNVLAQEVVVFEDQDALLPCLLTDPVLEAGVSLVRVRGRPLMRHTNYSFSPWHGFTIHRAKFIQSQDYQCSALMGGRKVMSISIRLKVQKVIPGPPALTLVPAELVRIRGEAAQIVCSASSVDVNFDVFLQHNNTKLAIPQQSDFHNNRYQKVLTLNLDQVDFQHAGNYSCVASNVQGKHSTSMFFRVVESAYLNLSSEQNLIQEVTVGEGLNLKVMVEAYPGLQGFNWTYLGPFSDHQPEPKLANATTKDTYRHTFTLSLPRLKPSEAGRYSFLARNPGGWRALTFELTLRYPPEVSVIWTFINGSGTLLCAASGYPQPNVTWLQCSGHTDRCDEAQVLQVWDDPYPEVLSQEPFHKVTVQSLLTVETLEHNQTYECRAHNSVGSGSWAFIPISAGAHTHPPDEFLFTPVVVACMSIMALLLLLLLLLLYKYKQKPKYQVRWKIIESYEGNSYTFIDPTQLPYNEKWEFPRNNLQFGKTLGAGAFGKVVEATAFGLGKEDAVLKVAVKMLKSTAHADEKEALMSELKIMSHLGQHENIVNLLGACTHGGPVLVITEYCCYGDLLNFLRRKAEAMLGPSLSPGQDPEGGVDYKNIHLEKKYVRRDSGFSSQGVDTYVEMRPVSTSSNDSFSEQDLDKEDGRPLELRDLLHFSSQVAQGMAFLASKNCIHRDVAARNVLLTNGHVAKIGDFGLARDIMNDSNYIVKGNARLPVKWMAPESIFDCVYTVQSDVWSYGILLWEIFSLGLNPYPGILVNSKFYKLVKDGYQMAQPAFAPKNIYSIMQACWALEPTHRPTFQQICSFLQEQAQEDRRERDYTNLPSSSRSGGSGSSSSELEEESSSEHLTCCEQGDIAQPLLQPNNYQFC
Text: The following Table 6 provides data indicating FLT3 ITD, D835Y and F691L; c-KIT and CSF1R biochemical and/or cell inhibitory activity for exemplary compounds as described herein.

CCOc1n[nH]c2ncc(-c3ccc(CC(=O)Nc4cnc(C)c(C(F)(F)F)c4)cc3)cc12 [Compound P-0217, 2-[4-(3-ethoxy-1H-pyrazolo[3,4-b]pyridin-5-yl)phenyl]-N-[6-methyl-5-(trifluoromethyl)-3-pyridyl]acetamide]
0.0001 to 10 µM: IC50 [1] | IC50 [2] | GI50 (BA/F3-FLT3-ITD + D835Y) | IC50 (CSF1R)

COc1ncc(NC(=O)Cc2ccc(-c3cnc4[nH]nc(N)c4c3)cc2)cc1C(F)(F)F [Compound P-0216, 2-(4-(3-amino-1H-pyrazolo[3,4-b]pyridin-5-yl)phenyl)-N-(6-methoxy-5-(trifluoromethyl)pyridin-3-yl)acetamide]
0.0001 to 10 µM: IC50 [1] | IC50 [2] | GI50 (BA/F3-FLT3-ITD + D835Y) | IC50 (CSF1R)

COc1ncc(NC(=O)Cc2ccc(-c3cnc4[nH]nc(Cl)c4c3)cc2)cc1C(F)(F)F [Compound P-0230, 2-[4-(3-chloro-1H-pyrazolo[3,4-b]pyridin-5-yl)phenyl]-N-[6-methoxy-5-(trifluoromethyl)-3-pyridyl]acetamide]
0.0001 to 10 µM: IC50 [1] | IC50 [2] | GI50 (BA/F3-FLT3-ITD + D835Y) | IC50 (CSF1R)

Cc1ncc(NC(=O)Cc2ccc(-c3cnc4[nH]c(C#CC(C)(C)O)cc4c3)cc2)cc1C(F)(F)F [Compound P-0220, 2-[4-[2-(3-hydroxy-3-methyl-but-1-ynyl)-1H-pyrrolo[2,3-b]pyridin-5-yl]phenyl]-N-[6-methyl-5-(trifluoromethyl)-3-pyridyl]acetamide]
0.0001 to 10 µM: IC50 [1] | IC50 [2] | GI50 (BA/F3-FLT3-ITD + D835Y) | IC50 (CSF1R)

CCOc1n[nH]c2ncc(-c3ccc(CC(=O)Nc4cnc(OC)c(C(F)(F)F)c4)cc3)cc12 [Compound P-0213, 2-(4-(3-ethoxy-1H-pyrazolo[3,4-b]pyridin-5-yl)phenyl)-N-(6-methoxy-5-(trifluoromethyl)pyridin-3-yl)acetamide]
0.0001 to 10 µM: IC50 [1] | IC50 [2] | GI50 (BA/F3-FLT3-ITD + D835Y) | IC50 (CSF1R)

COc1n[nH]c2ncc(-c3ccc(CC(=O)Nc4cnc(C)c(C(F)(F)F)c4)cc3)cc12 [Compound P-0218, 2-[4-(3-methoxy-1H-pyrazolo[3,4-b]pyridin-5-yl)phenyl]-N-[6-methyl-5-(trifluoromethyl)-3-pyridyl]acetamide]
0.0001 to 10 µM: IC50 [1] | IC50 [2] | GI50 (BA/F3-FLT3-ITD + D835Y) | IC50 (CSF1R)

COc1ncc(NC(=O)Cc2ccc(-c3cnc4[nH]nc(NC(=O)C(F)(F)F)c4c3)cc2)cc1C(F)(F)F [Compound P-0215, 2,2,2-trifluoro-N-[5-[4-[2-[[6-methoxy-5-(trifluoromethyl)-3-pyridyl]amino]-2-oxo-ethyl]phenyl]-1H-pyrazolo[3,4-b]pyridin-3-yl]acetamide]
0.0001 to 10 µM: IC50 [1] | IC50 [2] | GI50 (BA/F3-FLT3-ITD + D835Y) | IC50 (CSF1R)

COc1ncc(NC(=O)Cc2ccc(-c3cnc4[nH]nc(OC)c4c3)cc2)cc1C(F)(F)F [Compound P-0212, 2-[4-(3-methoxy-1H-pyrazolo[3,4-b]pyridin-5-yl)phenyl]-N-[6-methoxy-5-(trifluoromethyl)-3-pyridyl]acetamide]
0.0001 to 10 µM: IC50 [1] | IC50 [2] | GI50 (BA/F3-FLT3-ITD + D835Y) | IC50 (CSF1R)

COCCn1cc(Nc2ncc(-c3ccc(CC(=O)Nc4cnc(OC)c(C(F)(F)F)c4)c(F)c3)cn2)cn1 [Compound P-0265, 2-[2-fluoro-4-[2-[[1-(2-methoxyethyl)pyrazol-4-yl]amino]pyrimidin-5-yl]phenyl]-N-[6-methoxy-5-(trifluoromethyl)-3-pyridyl]acetamide]
0.0001 to 10 µM: IC50 [1] | IC50 [2] | GI50 (BA/F3-FLT3-ITD + D835Y)

COc1ncc(NC(=O)Cc2ccc(-c3cnc4[nH]nc(N)c4c3)c(F)c2)cc1C(F)(F)F [Compound P-0203, 2-[4-(3-amino-1H-pyrazolo[3,4-b]pyridin-5-yl)-3-fluoro-phenyl]-N-[6-methoxy-5-(trifluoromethyl)-3-pyridyl]acetamide]
0.0001 to 10 µM: IC50 [1] | IC50 [2] | GI50 (BA/F3-FLT3-ITD + D835Y)

COc1ncc(NC(=O)Cc2ccc(-c3cnc(Nc4cnn(C5CC5)c4)nc3)cc2)cc1C(F)(F)F [Compound P-0234, 2-[4-[2-[(1-cyclopropylpyrazol-4-yl)amino]pyrimidin-5-yl]phenyl]-N-[6-methoxy-5-(trifluoromethyl)-3-pyridyl]acetamide]
0.0001 to 10 µM: IC50 [1] | IC50 [2] | GI50 (BA/F3-FLT3-ITD + D835Y)

CCn1cc(Nc2ncc(-c3ccc(CC(=O)Nc4cnc(C)c(C(F)(F)F)c4)cc3F)cn2)cn1 [Compound P-0248, 2-[4-[2-[(1-ethylpyrazol-4-yl)amino]pyrimidin-5-yl]-3-fluoro-phenyl]-N-[6-methyl-5-(trifluoromethyl)-3-pyridyl]acetamide]
0.0001 to 10 µM: IC50 [1] | IC50 [2] | GI50 (BA/F3-FLT3-ITD + D835Y)

COc1cc(-c2cc3cc(-c4ccc(CC(=O)Nc5cncc(C(F)(F)F)c5)cc4F)cnc3[nH]2)ccn1 [Compound P-0200, 2-(3-fluoro-4-(2-(2-methoxypyridin-4-yl)-1H-pyrrolo[2,3-b]pyridin-5-yl)phenyl)-N-(5-(trifluoromethyl)pyridin-3-yl)acetamide]
0.0001 to 10 µM: IC50 [1] | IC50 [2] | GI50 (BA/F3-FLT3-ITD + D835Y)

COCCn1cc(Nc2ncc(-c3ccc(CC(=O)Nc4cncc(C(F)(F)F)c4)c(F)c3)cn2)cn1 [Compound P-0267, 2-[2-fluoro-4-[2-[[1-(2-methoxyethyl)pyrazol-4-yl]amino]pyrimidin-5-yl]phenyl]-N-[5-(trifluoromethyl)-3-pyridyl]acetamide]
0.0001 to 10 µM: IC50 [1] | IC50 [2] | GI50 (BA/F3-FLT3-ITD + D835Y)

COCCn1cc(Nc2ncc(-c3ccc(CC(=O)Nc4cc(C(F)(F)F)ccn4)c(F)c3)cn2)cn1 [Compound P-0270, 2-[2-fluoro-4-[2-[[1-(2-methoxyethyl)pyrazol-4-yl]amino]pyrimidin-5-yl]phenyl]-N-[4-(trifluoromethyl)-2-pyridyl]acetamide]
0.0001 to 10 µM: IC50 [1] | IC50 [2] | GI50 (BA/F3-FLT3-ITD + D835Y)

CCOc1n[nH]c2ncc(-c3ccc(CC(=O)Nc4cnc(OC)c(C(F)(F)F)c4)cc3F)cc12 [Compound P-0202, 2-[4-(3-ethoxy-1H-pyrazolo[3,4-b]pyridin-5-yl)-3-fluoro-phenyl]-N-[6-methoxy-5-(trifluoromethyl)-3-pyridyl]acetamide]
0.0001 to 10 µM: IC50 [1] | IC50 [2] | GI50 (BA/F3-FLT3-ITD + D835Y)

O=C(Cc1ccc(-c2cnc(Nc3cnn(C4CC4)c3)nc2)cc1)Nc1ccc(C(F)(F)F)nc1 [Compound P-0235, 2-[4-[2-[(1-cyclopropylpyrazol-4-yl)amino]pyrimidin-5-yl]phenyl]-N-[6-(trifluoromethyl)-3-pyridyl]acetamide]
0.0001 to 10 µM: IC50 [1] | IC50 [2] | GI50 (BA/F3-FLT3-ITD + D835Y)

COc1ncc(NC(=O)Cc2ccc(-c3cnc4[nH]c(C#CC(C)(C)C)cc4c3)cc2)cc1C(F)(F)F [Compound P-0219, 2-[4-[2-(3,3-dimethylbut-1-ynyl)-1H-pyrrolo[2,3-b]pyridin-5-yl]phenyl]-N-[6-methoxy-5-(trifluoromethyl)-3-pyridyl]acetamide]
0.0001 to 10 µM: IC50 [1] | IC50 [2] | GI50 (BA/F3-FLT3-ITD + D835Y)

O=C(Cc1ccc(-c2cnc(Nc3cnn(C4CC4)c3)nc2)cc1F)Nc1cc(C(F)(F)F)ccn1 [Compound P-0244, 2-[4-[2-[(1-cyclopropylpyrazol-4-yl)amino]pyrimidin-5-yl]-2-fluoro-phenyl]-N-[4-(trifluoromethyl)-2-pyridyl]acetamide]
0.0001 to 10 µM: IC50 [1] | IC50 [2] | GI50 (BA/F3-FLT3-ITD + D835Y)
